In PubChem BioAssay AID1960 (Broad Institute, 2009) one finds EC50 data, which are given here for 4 compounds.

Each structure is given as a SMILES string. Results filed as inconclusive are left out. Activity calls are given as the source filed them. No rule for the calls is given here. Bounds are passed on as bounds.

The assay deals with Zinc finger protein mex-5 (Caenorhabditis elegans) (UniProt Q9XUB2). Nature of the assay: potency of MEX-5 RNA-binding blockers – biochemical, fluorescence polarization, dose response (AID 1960). As to conditions: MEX-5/FITC-TCR2 RNA fluorescence polarization, 1 h.
Sequence of Zinc finger protein mex-5 (Caenorhabditis elegans) (Q9XUB2 whole entry, looked up): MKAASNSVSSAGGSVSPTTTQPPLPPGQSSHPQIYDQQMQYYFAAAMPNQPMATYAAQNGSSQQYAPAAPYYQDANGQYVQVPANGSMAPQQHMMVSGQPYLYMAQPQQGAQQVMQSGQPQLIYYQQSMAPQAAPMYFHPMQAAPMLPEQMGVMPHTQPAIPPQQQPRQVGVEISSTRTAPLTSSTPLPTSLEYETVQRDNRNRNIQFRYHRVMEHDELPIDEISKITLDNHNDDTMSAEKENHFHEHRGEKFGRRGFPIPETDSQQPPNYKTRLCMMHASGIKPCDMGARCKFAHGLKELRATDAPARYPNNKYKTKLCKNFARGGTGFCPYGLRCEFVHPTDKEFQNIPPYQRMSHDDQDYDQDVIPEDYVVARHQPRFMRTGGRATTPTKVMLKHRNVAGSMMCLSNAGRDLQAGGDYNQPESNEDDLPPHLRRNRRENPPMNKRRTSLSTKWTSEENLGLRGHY
With `Cc1cc(/C=C2/C(=O)NC(=O)N(Cc3ccco3)C2=O)c(C)n1-c1ccc(C(=O)O)cc1`, the EC50 is > 30 µM (inactive).
In the case of `CCC(C)/C=C(C)/C=C/C1=CC2=C(Cl)C(=O)C(C)(OC(C)=O)C(=O)C2=CO1` (centres undefined), the EC50 is > 30 µM (inactive).
In the case of `CC[C@H](C)/C=C(C)/C=C/C1=CC2=C(Cl)C(=O)[C@@](C)(OC(C)=O)C(=O)C2=CO1`, the EC50 was 17.8 µM.
In the case of `CCN(CC)c1ccc(N=Cc2c(O)n(Cc3ccccc3)c(=O)[nH]c2=O)cc1` it was > 30 µM (inactive).
